Measurements: ChEMBL document CHEMBL1649205, “CraA, a major facilitator superfamily efflux pump associated with chloramphenicol resistance in Acinetobacter baumannii” (2009)
≈ marks a conversion by molar mass, not a printed value.

Tests used:
Assay type in all cases: functional
Acinetobacter baumannii [1] = assay: Antimicrobial activity against efflux pump CraA deficient Acinetobacter baumannii JVAB01 receiving pJV103 harboring open reading frame orf3 encoded efflux pump CraA in presence of efflux pump inhibitor phenyl-arginine-beta-naphthylamide by Etest
Acinetobacter baumannii [2] = assay: Antimicrobial activity against Acinetobacter baumannii ATCC 19606 expressing open reading frame orf3 encoded efflux pump CraA in presence of efflux pump inhibitor phenyl-arginine-beta-naphthylamide by Etest
Acinetobacter baumannii [3] = assay: Antimicrobial activity against Acinetobacter baumannii JVAB01 expressing disrupted open reading frame orf3 mutant deficient in efflux pump CraA by Etest
Acinetobacter baumannii [4] = assay: microbe, parasite or virus in culture; conditions: ATCC 19606
Description: Antimicrobial activity against Acinetobacter baumannii ATCC 19606 expressing open reading frame orf3 encoded efflux pump CraA by Etest

Acinetobacter baumannii [5] = assay: Antimicrobial activity against Acinetobacter baumannii JVAB01 expressing disrupted open reading frame orf3 mutant deficient in efflux pump CraA in presence of efflux pump inhibitor phenyl-arginine-beta-naphthylamide by Etest
Acinetobacter baumannii [6] = assay: Antimicrobial activity against efflux pump CraA deficient Acinetobacter baumannii JVAB01 receiving pJV103 harboring open reading frame orf3 encoded efflux pump CraA by Etest

Row | SMILES | MIC (Acinetobacter baumannii [1]) [µg/mL] | MIC (Acinetobacter baumannii [2]) [µg/mL] | MIC (Acinetobacter baumannii [3]) [µg/mL] | MIC (Acinetobacter baumannii [4]) [µg/mL] | MIC (Acinetobacter baumannii [5]) [µg/mL] | MIC (Acinetobacter baumannii [6]) [µg/mL]
1 | O=C(N[C@H](CO)[C@H](O)c1ccc([N+](=O)[O-])cc1)C(Cl)Cl [CHLORAMPHENICOL] | 16 | 32 | 2 (≈ 6.19 µM) | > 256 | 1.5 | 192 (≈ 594 µM)
2 | O=C(O)c1cn(C2CC2)c2cc(N3CCNCC3)c(F)cc2c1=O [CIPROFLOXACIN] |  |  | 0.25 (≈ 0.754 µM) | 0.25 (≈ 0.754 µM) |  | 0.25 (≈ 0.754 µM)
3 | CCC[C@@H]1C[C@@H](C(=O)N[C@@H]([C@H]2O[C@H](SC)[C@H](O)[C@@H](O)[C@H]2O)[C@H](C)Cl)N(C)C1 [CLINDAMYCIN] |  |  | > 256 | > 256 |  | > 256
4 | CC[C@H]1OC(=O)[C@H](C)[C@@H](O[C@H]2C[C@@](C)(OC)[C@@H](O)[C@H](C)O2)[C@H](C)[C@@H](O[C@@H]2O[C@H](C)C[C@H](N(C)C)[C@H]2O)[C@](C)(O)C[C@@H](C)C(=O)[C@H](C)[C@@H](O)[C@]1(C)O [ERYTHROMYCIN] |  |  | 1.5 (≈ 2.04 µM) | 1.5 (≈ 2.04 µM) |  | 1.5 (≈ 2.04 µM)
5 | C[C@@H](O)[C@H]1C(=O)N2C(C(=O)O)=C(SCCNC=N)C[C@H]12 [IMIPENEM ANHYDROUS] |  |  | 0.75 (≈ 2.51 µM) | 0.75 (≈ 2.51 µM) |  | 0.75 (≈ 2.51 µM)
6 | CCn1cc(C(=O)O)c(=O)c2ccc(C)nc21 [NALIDIXIC ACID] |  |  | 12 (≈ 51.7 µM) | 12 (≈ 51.7 µM) |  | 12 (≈ 51.7 µM)
7 | CCn1cc(C(=O)O)c(=O)c2cc(F)c(N3CCNCC3)cc21 [NORFLOXACIN] |  |  | 6 (≈ 18.8 µM) | 6 (≈ 18.8 µM) |  | 6 (≈ 18.8 µM)
8 | CN(C)[C@@H]1C(O)=C(C(N)=O)C(=O)[C@@]2(O)C(O)=C3C(=O)c4c(O)cccc4[C@@](C)(O)[C@H]3C[C@@H]12 [TETRACYCLINE] |  |  | 6 (≈ 13.5 µM) | 6 (≈ 13.5 µM) |  | 96 (≈ 216 µM)
